Assay results reported in the NIST ThermoML archive (doi:10.1021/acs.jced.9b00248).
Numbers after ± are expanded uncertainties.

Test: mn = molality of the nth substance listed, in mol/kg
Conditions: Liquid; for viscosity: Vibrating wire viscometry; for mass density: Vibrating tube method

[Ca+2].[Cl-].[Cl-] [calcium chloride] + O
Conditions | mass density [kg/m3] | viscosity [mPa·s]
274.75 K, 1300 kPa, m1 = 1 | – | 2.142 ± 0.065
274.75 K, 49900 kPa, m1 = 1 | – | 2.117 ± 0.065
274.75 K, 99700 kPa, m1 = 1 | – | 2.096 ± 0.064
274.87 K, 1270 kPa, m1 = 1 | 1088.12 ± 0.72 | –
274.87 K, 15180 kPa, m1 = 1 | 1094.18 ± 0.82 | –
274.87 K, 30070 kPa, m1 = 1 | 1100.27 ± 0.84 | –
274.87 K, 49880 kPa, m1 = 1 | 1108.27 ± 0.78 | –
274.87 K, 69750 kPa, m1 = 1 | 1115.89 ± 0.9 | –
274.87 K, 99730 kPa, m1 = 1 | 1126.88 ± 0.98 | –
274.98 K, 1310 kPa, m1 = 2.5 | 1201.94 ± 1.2 | –
274.98 K, 15210 kPa, m1 = 2.5 | 1207.74 ± 1.3 | –
274.98 K, 30100 kPa, m1 = 2.5 | 1212.77 ± 1.3 | –
274.98 K, 49930 kPa, m1 = 2.5 | 1219.37 ± 1.4 | –
274.98 K, 69770 kPa, m1 = 2.5 | 1225.9 ± 1.4 | –
274.98 K, 99750 kPa, m1 = 2.5 | 1235.53 ± 1.6 | –
296.18 K, 1280 kPa, m1 = 1 | 1082.39 ± 0.81 | –
296.18 K, 15170 kPa, m1 = 1 | 1087.93 ± 0.73 | –
296.18 K, 30070 kPa, m1 = 1 | 1093.68 ± 0.83 | –
296.18 K, 49900 kPa, m1 = 1 | 1101.19 ± 0.85 | –
296.18 K, 69750 kPa, m1 = 1 | 1108.4 ± 0.88 | –
296.18 K, 99730 kPa, m1 = 1 | 1118.84 ± 0.96 | –
296.21 K, 30100 kPa, m1 = 1 | – | 1.224 ± 0.038
296.21 K, 99700 kPa, m1 = 1 | – | 1.237 ± 0.038
296.22 K, 1310 kPa, m1 = 2.5 | 1192.77 ± 1.2 | –
296.22 K, 15240 kPa, m1 = 2.5 | 1197.73 ± 1.3 | –
296.22 K, 30130 kPa, m1 = 2.5 | 1202.82 ± 1.2 | –
296.22 K, 49960 kPa, m1 = 2.5 | 1209.46 ± 1.3 | –
296.22 K, 69780 kPa, m1 = 2.5 | 1215.91 ± 1.4 | –
296.22 K, 99740 kPa, m1 = 2.5 | 1225.32 ± 1.5 | –
323.23 K, 1280 kPa, m1 = 2.5 | 1179.3 ± 1.2 | –
323.23 K, 15180 kPa, m1 = 2.5 | 1184.63 ± 1.2 | –
323.23 K, 30060 kPa, m1 = 2.5 | 1189.89 ± 1.2 | –
323.23 K, 49910 kPa, m1 = 2.5 | 1196.52 ± 1.3 | –
323.23 K, 69770 kPa, m1 = 2.5 | 1202.94 ± 1.3 | –
323.23 K, 99730 kPa, m1 = 2.5 | 1212.15 ± 1.5 | –
323.31 K, 1240 kPa, m1 = 1 | 1071.6 ± 0.8 | –
323.31 K, 15190 kPa, m1 = 1 | 1077.19 ± 0.8 | –
323.31 K, 30070 kPa, m1 = 1 | 1082.81 ± 0.81 | –
323.31 K, 49880 kPa, m1 = 1 | 1090.06 ± 0.83 | –
323.31 K, 69760 kPa, m1 = 1 | 1097.04 ± 0.86 | –
323.31 K, 99750 kPa, m1 = 1 | 1107.2 ± 0.93 | –
323.4 K, 1300 kPa, m1 = 1 | – | 0.736 ± 0.023
323.4 K, 15200 kPa, m1 = 1 | – | 0.734 ± 0.023
323.4 K, 30100 kPa, m1 = 1 | – | 0.732 ± 0.023
323.4 K, 49900 kPa, m1 = 1 | – | 0.728 ± 0.023
323.4 K, 69800 kPa, m1 = 1 | – | 0.725 ± 0.023
348.19 K, 1320 kPa, m1 = 2.5 | 1165.84 ± 1.2 | –
348.19 K, 15220 kPa, m1 = 2.5 | 1170.56 ± 1.2 | –
348.19 K, 30110 kPa, m1 = 2.5 | 1175.97 ± 1.2 | –
348.19 K, 49950 kPa, m1 = 2.5 | 1182.84 ± 1.2 | –
348.19 K, 69790 kPa, m1 = 2.5 | 1189.55 ± 1.3 | –
348.19 K, 99790 kPa, m1 = 2.5 | 1199.01 ± 1.4 | –
348.2 K, 1300 kPa, m1 = 1 | 1058.82 ± 0.79 | –
348.2 K, 15220 kPa, m1 = 1 | 1064.57 ± 0.79 | –
348.2 K, 30100 kPa, m1 = 1 | 1070.33 ± 0.8 | –
348.2 K, 49930 kPa, m1 = 1 | 1077.65 ± 0.82 | –
348.2 K, 69790 kPa, m1 = 1 | 1084.72 ± 0.84 | –
348.2 K, 99770 kPa, m1 = 1 | 1094.89 ± 0.9 | –
373.2 K, 1350 kPa, m1 = 2.5 | 1151.73 ± 1.2 | –
373.2 K, 15250 kPa, m1 = 2.5 | 1156.76 ± 1.2 | –
373.2 K, 30140 kPa, m1 = 2.5 | 1161.97 ± 1.2 | –
373.2 K, 49960 kPa, m1 = 2.5 | 1168.74 ± 1.2 | –
373.2 K, 69820 kPa, m1 = 2.5 | 1175.25 ± 1.3 | –
373.2 K, 99780 kPa, m1 = 2.5 | 1184.69 ± 1.4 | –
373.22 K, 1320 kPa, m1 = 1 | 1042.78 ± 0.78 | –
373.22 K, 15230 kPa, m1 = 1 | 1048.82 ± 0.79 | –
373.22 K, 30130 kPa, m1 = 1 | 1054.88 ± 0.79 | –
373.22 K, 49940 kPa, m1 = 1 | 1062.61 ± 0.8 | –
373.22 K, 69790 kPa, m1 = 1 | 1070 ± 0.82 | –
373.22 K, 99790 kPa, m1 = 1 | 1080.38 ± 0.87 | –
373.45 K, 30100 kPa, m1 = 1 | – | 0.393 ± 0.013
373.45 K, 49900 kPa, m1 = 1 | – | 0.399 ± 0.013
398.26 K, 1360 kPa, m1 = 2.5 | 1134.93 ± 1.2 | –
398.26 K, 15270 kPa, m1 = 2.5 | 1140.45 ± 1.2 | –
398.26 K, 30160 kPa, m1 = 2.5 | 1146.01 ± 1.2 | –
398.26 K, 49970 kPa, m1 = 2.5 | 1153.12 ± 1.2 | –
398.26 K, 69820 kPa, m1 = 2.5 | 1159.89 ± 1.3 | –
398.26 K, 99800 kPa, m1 = 2.5 | 1169.63 ± 1.4 | –
398.28 K, 1320 kPa, m1 = 1 | 1024.8 ± 0.77 | –
398.28 K, 15230 kPa, m1 = 1 | 1031.2 ± 0.78 | –
398.28 K, 30120 kPa, m1 = 1 | 1037.76 ± 0.78 | –
398.28 K, 49940 kPa, m1 = 1 | 1045.99 ± 0.79 | –
398.28 K, 69780 kPa, m1 = 1 | 1053.7 ± 0.8 | –
398.28 K, 99790 kPa, m1 = 1 | 1064.71 ± 0.84 | –
398.33 K, 15200 kPa, m1 = 1 | – | 0.31 ± 0.01
398.33 K, 30100 kPa, m1 = 1 | – | 0.315 ± 0.011
398.33 K, 49900 kPa, m1 = 1 | – | 0.321 ± 0.011
423.46 K, 1400 kPa, m1 = 1 | – | 0.255 ± 0.009
423.46 K, 50000 kPa, m1 = 1 | – | 0.266 ± 0.009
423.46 K, 69800 kPa, m1 = 1 | – | 0.272 ± 0.009
423.6 K, 1340 kPa, m1 = 1 | 1004.42 ± 0.76 | –
423.6 K, 1360 kPa, m1 = 2.5 | 1116.33 ± 1.2 | –
423.6 K, 15250 kPa, m1 = 1 | 1011.3 ± 0.77 | –
423.6 K, 15260 kPa, m1 = 2.5 | 1122.22 ± 1.2 | –
423.6 K, 30150 kPa, m1 = 1 | 1018.56 ± 0.77 | –
423.6 K, 30150 kPa, m1 = 2.5 | 1128.37 ± 1.2 | –
423.6 K, 49950 kPa, m1 = 1 | 1027.46 ± 0.78 | –
423.6 K, 49980 kPa, m1 = 2.5 | 1136 ± 1.2 | –
423.6 K, 69810 kPa, m1 = 2.5 | 1143.19 ± 1.3 | –
423.6 K, 69820 kPa, m1 = 1 | 1035.71 ± 0.79 | –
423.6 K, 99790 kPa, m1 = 2.5 | 1153.51 ± 1.3 | –
423.6 K, 99810 kPa, m1 = 1 | 1047.43 ± 0.81 | –
448.43 K, 1400 kPa, m1 = 1 | – | 0.226 ± 0.008
448.43 K, 69800 kPa, m1 = 1 | – | 0.235 ± 0.008
448.83 K, 1360 kPa, m1 = 2.5 | 1096.34 ± 1.2 | –
448.83 K, 15250 kPa, m1 = 2.5 | 1102.89 ± 1.2 | –
448.83 K, 30150 kPa, m1 = 2.5 | 1109.65 ± 1.2 | –
448.83 K, 49970 kPa, m1 = 2.5 | 1117.84 ± 1.2 | –
448.83 K, 69820 kPa, m1 = 2.5 | 1125.62 ± 1.2 | –
448.83 K, 99830 kPa, m1 = 2.5 | 1136.51 ± 1.3 | –
448.84 K, 1360 kPa, m1 = 1 | 982.19 ± 0.75 | –
448.84 K, 15270 kPa, m1 = 1 | 989.78 ± 0.76 | –
448.84 K, 30160 kPa, m1 = 1 | 997.78 ± 0.76 | –
448.84 K, 49980 kPa, m1 = 1 | 1007.39 ± 0.76 | –
448.84 K, 69830 kPa, m1 = 1 | 1016.54 ± 0.77 | –
448.84 K, 99810 kPa, m1 = 1 | 1029.19 ± 0.78 | –
